Experimental data reported in patent publication US6949553B2, “Aliphatic compounds, their synthesis method, and utilization of the same” (Maruha Corporation, priority 2001, dated 2005).
Several values for one entry are separate records, joined by “and”; a condition that tells them apart may be missing. Identical values can stand only once. Like-named read-outs stand apart in the source and are kept apart here.

What was measured:
[1] = test system: vascular smooth muscle cells; assay: Synthetic type vascular smooth muscle cell proliferation (PDGF, BrdU assay); format: cell-based, rat; conditions: 0.3 to 3 μM with PDGF 50 ng/ml, 24 hours
Method: The effect of the study substance on vascular smooth muscle cell proliferation was studied.
Thus, the effect of Compound 2 on the cell proliferation of vascular smooth muscle cells was measured in the following manner:
The rat carotid arterial tunica intima was rubbed by ballooning, and vascular smooth muscle cells were prepared by explant culture. Two weeks later, these cells were cultured in a DMEM culture medium (Gibco) containing 10% fetal bovine serum. The cultures were subcultured several times for stabilization, and then planted at a cell density of 5×10^3 cells/cm^2 for use in experiments. Compound 2 in combination with 50 ng/ml of the growth factor PDGF (Sigma) was added to the above planted cells and, 24 hours later, the cell density was measured by BrdU assay (Science '82, 218, p. 474, Cytometry '85, 6, p. 584). The cell density in the absence of the drug was measured as a control.
Relative smooth muscle cell count (%)=[cell count in the experimental group]/[cell count in the control]×100.

platelets [2] = assay: In vitro platelet aggregation by various inducers, guinea pig platelets; format: cell-based; conditions: Cavia porcellus
Excerpt: (§1) Next, the suppression of platelet aggregation by the compounds of the present invention was studied in the same manner as described above with the use of not only collagen, but also arachidonic acid, ADP, thrombin, serotonin, epinephrine and U46619 (pseudo-thromboxane A2 substance) as inducers.
(§2) As platelets, platelets prepared from rats and guinea pigs as well as rabbits were also used.
(§3) Collagen and ADP were purchased from MCM, and used in accordance with the method of preparation described in the manuals attached to the purchased products. Serotonin, epinephrine and thrombin were purchased from Sigma, and used as solutions in physiological saline for injection (Otsuka Pharmaceutical Factory). Arachidonic acid was purchased from Cayman, and dispersed in physiological saline for injection (Otsuka Pharmaceutical Factory) with the use of an immersion type ultrasonic oscillator (US150, NIPPON SEIKI, tip end diameter ca. 3.5 mm). U46619 (pseudo-thromboxane substance) was purchased from FUNAKOSHI, and dissolved in physiological saline for injection (Otsuka Pharmaceutical Factory) when used.
(§4) Collagen (0.1 to 1 μg/ml), arachidonic acid (1 mM), ADP (1 μM), thrombin (1 U/ml), serotonin (100 μM), epinephrine (100 to 200 μM), and U46619 (3 μM) were used.
(§5) Indomethacin was used as a positive control for measuring the suppression of platelet aggregation induced by collagen.

platelets [3] = assay: In vitro platelet aggregation by various inducers, rabbit platelets; format: cell-based; conditions: for IC50: Oryctolagus cuniculus, Platelet, rabbit platelets, read-out: 50% inhibition point, IC50, for in vitro platelet aggregation
Excerpt: as §1, §2, §3, §4, §5

human platelets [4] = assay: Human in vitro platelet aggregation; format: cell-based; conditions: inducer Serotonin + ADP, (0.25˜1) μM + (0.05˜0.25) μM, read-out: 50% inhibition point, IC50, against human in vitro platelet aggregation
human platelets [5] = assay: Human in vitro platelet aggregation; format: cell-based; conditions: read-out: 50% inhibition point, IC50, against human in vitro platelet aggregation
Method: From each of the large brachial veins of human volunteers, 10 ml of blood per person was drawn using an 18G syringe needle. The blood was gently dropped into a 15 ml Falcon tube containing 1 ml of 3.8% sodium citrate (Citral, Yamanouchi Pharmaceutical). A stopper for the tube was closed, and slowly inverted for mixing. Then, the blood was centrifuged at 900 rpm for 10 minutes at room temperature to separate the supernatant (platelet rich fraction, platelet rich plasma, PRP). The residue was further centrifuged for 15 minutes at 2,500 rpm to obtain the supernatant (platelet poor fraction, platelet poor plasma, PPP). The platelet density of PRP was measured with a blood cell counter (Sysmex), and diluted with PPP to adjust the platelet density to 300,000 platelets/μl.
Preparation of aggregation inducers was performed in the same manner as described earlier.
For each experiment, the doses of the inducers were so set as to obtain best evaluation of the action of the study substance. That is, the concentration of each inducer at which aggregation would clearly develop in the presence of a negative control (physiological saline) but would not excessive was set for each experiment.
If aggregation is induced by high concentration ADP or high concentration epinephrine, on the other hand, primary aggregation takes place, and then secondary aggregation proceeds again, under the action, as a trigger, of alpha granules (PDGF, serotonin, ADP, etc.) liberated from activated platelets. In the present study, the effect of the study substance on secondary aggregation due to ADP or epinephrine was also investigated.
Serotonin, when used alone, minimally causes platelet aggregation. Thus, a combination of serotonin and collagen, or a combination of serotonin and ADP was used as the inducer. […] For example, if serotonin used alone induced aggregation at a dose of 1 mM, but induced little aggregation at a dose of 0.5 mM, and if ADP alone induced aggregation at a dose of 0.25 mM, but induced no aggregation at a dose of 0.11 mM, then the doses, 0.25 mM serotonin+0.05 mM ADP, were set.
Compound 2 was used as the study substance, and the preparation of the inducers was performed in the same manner as described earlier.
The measurement of the transmittance was carried out in the same manner as described earlier.

platelets [6] = assay: Ex vivo platelet aggregation after intravenous administration; format: in vivo, rat
Method: The blood was withdrawn at three points in time, 10 minutes, 30 minutes and 1 hour after administration. Platelets were prepared from the blood samples taken, and they were used to study the aggregation rates when platelet aggregation was induced by 0.3 to 6 μg/ml of collagen. In a control group, the aggregation rates after administration of a solvent (physiological saline) were measured.
It was studied whether the compound of the present invention would suppress ex vivo platelet aggregation dose-dependently.
The blood was withdrawn 60 minutes after administration, and platelets were prepared from the blood. Platelet aggregation was induced by 4 to 7 μg/ml of collagen using the platelets.
The blood was withdrawn 1 hour after intravenous administration, and platelets were prepared from the blood. Platelet aggregation was induced by 1 to 6 μg/ml of collagen using the platelets.

Question: `CC/C=C\C/C=C\C/C=C\C/C=C\C/C=C\C/C=C\CCC(=O)NCCC1CCCN1C` (racemic) [Compound 2, (4Z,7Z,10Z,13Z,16Z,19Z)-N-[2-(1-methylpyrrolidin-2-yl)ethyl]docosahexaenoamide] was tested. Which “vascular smooth muscle cell proliferation (in words)” value [1] did it give?
Answer: The value was “suppress vascular smooth muscle cell proliferation concentration-dependently”.

Question: And the IC50 (platelets [2]; read-out: 50% aggregation inhibition point, collagen-induced aggregation, guinea pig platelets)?
Answer: Its IC50 is about 9 µM.

Question: What about the IC50 (platelets [2]; read-out: 50% inhibition point, IC50, for in vitro platelet aggregation, inducer ADP (1 μM), guinea pig platelets) of the same molecule?
Answer: The IC50 was 65 ± 19 µM.

Question: And the IC50 (platelets [2]; read-out: 50% inhibition point, IC50, for in vitro platelet aggregation, inducer collagen (0.1 to 1 μg/ml), guinea pig platelets)?
Answer: The IC50 was 9 ± 6 µM.

Question: And the IC50 (platelets [2]; read-out: 50% inhibition point, IC50, for in vitro platelet aggregation, inducer thrombin (1 U/ml), guinea pig platelets)?
Answer: The IC50 was over 100 µM.

Question: And the IC50 (platelets [3]; inducer ADP (1 μM))?
Answer: Its IC50 is over 100 µM.

Question: What about the IC50 (platelets [3]; inducer U46619 (3 μM)) of the same molecule?
Answer: The IC50 was 50 ± 10 µM.

Question: What about the IC50 (platelets [3]; inducer arachidonic acid (1 mM)) of the same molecule?
Answer: Its IC50 is over 100 µM.

Question: What about the IC50 (platelets [3]; inducer collagen (0.1 to 1 μg/ml)) of the same molecule?
Answer: The IC50 was 2.1 ± 0.8 µM.

Question: What about the “inhibition of platelet aggregation induced by arachidonic acid, ADP and thrombin (in words)” value (platelets [3]; platelets from the rabbit, the rat or the guinea pig) of the same molecule?
Answer: Its value is “either did not inhibit platelet aggregation, or even when it inhibited platelet aggregation, its degree of inhibition was very low”.

Question: What about the IC50 (human platelets [4]) of the same molecule?
Answer: The IC50 was 3 µM.

Question: What about the IC50 (human platelets [5]; inducer ADP (0.5˜1) μM, primary aggregation) of the same molecule?
Answer: The IC50 was 30 µM.

Question: And the IC50 (human platelets [5]; inducer ADP (1˜2.5) μM, secondary aggregation)?
Answer: The IC50 was 0.57 µM.

Question: And the IC50 (human platelets [5]; inducer Arachidonic acid (1˜2) μM)?
Answer: The IC50 was 80 µM.

Question: What about the IC50 (human platelets [5]; inducer Collagen (0.075˜0.25) μg/ml) of the same molecule?
Answer: The IC50 was 13 µM.

Question: And the IC50 (human platelets [5]; inducer Epinephrine 1 μM, primary aggregation)?
Answer: Its IC50 is 33 µM.

Question: What about the IC50 (human platelets [5]; inducer Epinephrine (1˜3) μM, secondary aggregation) of the same molecule?
Answer: The IC50 was 2.7 µM.

Question: What about the IC50 (human platelets [5]; inducer Serotonin + Collagen, (0.25˜0.5) μM + (0.05˜0.2) μg/ml) of the same molecule?
Answer: The IC50 was 15 µM.

Question: What about the IC50 (human platelets [5]; inducer Thrombin (0.2˜0.25) U/ml) of the same molecule?
Answer: The IC50 was 57 µM.

Question: What about the IC50 (human platelets [5]; inducer U46619 (pseudo-thromboxane A2) (5˜10) μM) of the same molecule?
Answer: Its IC50 is 53 µM.

Question: And the “ex vivo IC50 blood concentration as fraction of in vitro IC50” value (platelets [6]; 26 nM versus 2.1±0.8 μM in vitro)?
Answer: The value was “about 1/80”.

Question: What about the “ex vivo platelet aggregation (in words)” value (platelets [6]; 0.0001 mg/kg rat caudal vein, 60 minutes, collagen 4 μg/ml) of the same molecule?
Answer: Its value is “suppressed compared with the solvent-treated group, although the suppressive action was weak”.

Question: And the “ex vivo platelet aggregation, onset of efficacy (in words)” value (platelets [6]; 10 mg/kg caudal vein, male SD rats, blood 10 minutes, 30 minutes and 1 hour after administration, collagen 0.3 to 6 μg/ml)?
Answer: Its value is “platelet aggregation was suppressed in comparison with the solvent group”.

Question: What about the “ex vivo platelet aggregation (in words)” value (platelets [6]; 1, 0.1, 0.01 or 0.001 mg/kg rat caudal vein, blood 60 minutes after administration, collagen 4 to 7 μg/ml) of the same molecule?
Answer: The value was “platelet aggregation was suppressed in comparison with the solvent-treated group”.

Question: What about the “ex vivo platelet aggregation, dose-dependency (in words)” value (platelets [6]; FIG. 3, 0.0001 to 1 mg/kg rat caudal vein, 60 minutes) of the same molecule?
Answer: Its value is “suppressing platelet aggregation ex vivo dose-dependently”.

Question: And the estimated blood concentration at the ex vivo IC50 dose (platelets [6]; Platelet, iv, 630 ng/kg, rat blood estimated at about 60 ml/kg, read-out: presumed blood concentration at the ex vivo IC50 dose)?
Answer: Its estimated blood concentration at the ex vivo IC50 dose is 26 nM.

Question: What about the “IC50 for suppression of ex vivo platelet aggregation relative to conventional GPIIb/IIIa receptor antagonists” value (platelets [6]; rat, intravenous) of the same molecule?
Answer: The value was “about 1,000 times”.

Question: What about the “50% suppression point, IC50, ex vivo platelet aggregation” value (platelets [6]; rat, intravenous, 60 minutes after administration, collagen 4 μg/ml) of the same molecule?
Answer: Its value is 630 ± 36 ng/kg and 630 ng/kg.
